In patent US20040039031A1, “Novel pharmaceutical compositions having an antidiabetic action, and process for their preparation” (priority 2000, published 2004):

Tests used:
[1] = test system: NIDD STZ rats; test: Streptozotocin-induced NIDD diabetic rats, eight-day oral treatment, plasma biological parameters; type: in vivo, male Wistar rats; details: for Glycaemia at D29 as percent of D21: values at D21 taken as 100%
Method: 40 male Wistar rats (Charles River, Saint Aubin les Elbeuf, France), with an average weight of 280 g, are used in this experiment. The animals are housed for one week in a standardised animal house, the following parameters of which are controlled: The forty rats are made diabetic by IP administration of 50 mg/kg of streptozotocin dissolved in physiological saline (a single administration). […] For each rat, 100 μl of blood are collected by venepuncture in a caudal vein, onto heparin, at time D0 (before the administration of STZ), at time D21 (21 days after STZ, before the treatments) and at D29 (after eight days of treatment). The samples are immediately centrifuged (10 minutes at 4000 rpm) and the plasma is separated from the blood cells. The samples are frozen until the time of determination of the biological parameters. After thawing the plasma samples, the above parameters are determined by enzymatic methods, using a COBAS automated machine (Roche). The glycaemia is measured by the hexokinase method; the cholesterol by the enzymatic final Randox point method; the triglycerides by the GPO-PAP method; the lactic acid by the lactic dehydrogenase method. The circulating insulin is measured by radioimmunoassay using CEA kits. The efficacy of the treatments is evaluated between […] by a t test adapted to paired series (for each rat, the value at D21 relative to D29 serves as the control).

[2] = test system: NIDD rats, of STZ type; test: Earlier study of glibenclamide 0.5 mg/kg daily in NIDD rats of STZ type; type: in vivo; details: daily dose of 0.5 mg/kg
[3] = metformin 30 mg/kg/day group, D0 (before STZ)
[4] = metformin 30 mg/kg/day group, D21 (21 days after STZ, before treatment)
[5] = metformin (hydrochloride) 30 mg/kg/day orally in two doses, D29 (after eight days of treatment)
[6] = glibenclamide 1 mg/kg/day group, D0 (before STZ)
[7] = glibenclamide 1 mg/kg/day group, D21 (21 days after STZ, before treatment)
[8] = glibenclamide 1 mg/kg/day orally in two doses, D29 (after eight days of treatment)
[9] = glibenclamide 2 mg/kg/day group, D0 (before STZ)
[10] = glibenclamide 2 mg/kg/day group, D21 (21 days after STZ, before treatment)
[11] = glibenclamide 2 mg/kg/day orally in two doses, D29 (after eight days of treatment)
[12] = glibenclamide higher dose 2 mg/kg/day, D29 vs D21
[13] = glibenclamide low dose 1 mg/kg/day, D29 vs D21

Q: `CN(C)C(=N)N=C(N)N` [Metformin, metformin] was tested. Which glycaemia at D29 (% of D21) ([1]; Metformin 30 mg/kg/day) did it give?
A: 86%

Q: What about the “Glycaemia at D29 as percent of D21” value ([1]; Metformin 30 mg/kg/day) of the same compound?
A: 86.03 +/− 4.29%

Q: What about the Cholesterol [1, 3] of the same compound?
A: 1.00 +/− 0.07 mM/l

Q: And the Glycaemia [1, 3]?
A: 6.38 +/− 0.23 mM/l

Q: And the Insulinaemia [1, 3]?
A: 12.8 +/− 0.2 μU/ml

Q: And the Lactates [1, 3]?
A: 2.47 +/− 0.15 mM/l

Q: What about the Triglycerides [1, 3] of the same compound?
A: 0.96 +/− 0.12 mM/l

Q: And the Cholesterol [1, 4]?
A: 1.57 +/− 0.08 mM/l

Q: And the Glycaemia [1, 4]?
A: 14.41 +/− 0.36 mM/l

Q: And the Lactates [1, 4]?
A: 2.53 +/− 0.09 mM/l

Q: And the Triglycerides [1, 4]?
A: 1.05 +/− 0.03 mM/l

Q: And the “Effect on lactates” value ([1]; metformin 30 mg/kg/day, eight days)?
A: tendency to increase

Q: And the Cholesterol [1, 5]?
A: 1.48 +/− 0.06 mM/l

Q: What about the Glycaemia [1, 5] of the same compound?
A: **12.35 +/− 0.49 mM/l

Q: What about the Insulinaemia [1, 5] of the same compound?
A: 17.3 +/− 0.7 μU/ml

Q: And the Lactates [1, 5]?
A: *2.70 +/− 0.11 mM/l

Q: What about the Triglycerides [1, 5] of the same compound?
A: 0.96 +/− 0.05 mM/l

Q: And the Decrease in glycaemia ([1]; metformin alone 30 mg/kg/day, D29 vs D21)?
A: 13.7%

Q: glibenclamide was tested. Which “Glycaemia at D29 as percent of D21” value ([1]; Glibenclamide 2 mg/kg/day) did it give?
A: 93.49 +/− 1.15%

Q: And the Cholesterol [1, 6]?
A: 1.03 +/− 0.04 mM/l

Q: What about the Glycaemia [1, 6] of the same compound?
A: 6.39 +/− 0.17 mM/l

Q: And the Insulinaemia [1, 6]?
A: 12.8 +/− 0.8 μU/ml

Q: And the Lactates [1, 6]?
A: 2.19 +/− 0.07 mM/l

Q: And the Triglycerides [1, 6]?
A: 0.87 +/− 0.05 mM/l

Q: What about the Cholesterol [1, 7] of the same compound?
A: 1.65 +/− 0.08 mM/l

Q: And the Glycaemia [1, 7]?
A: 14.22 +/− 0.65 mM/l

Q: And the Insulinaemia [1, 7]?
A: 16.7 +/− 0.8 μU/ml

Q: And the Lactates [1, 7]?
A: 2.59 +/− 0.10 mM/l

Q: And the Triglycerides [1, 7]?
A: 1.04 +/− 0.10 mM/l

Q: What about the Cholesterol [1, 8] of the same compound?
A: 1.42 +/− 0.08 mM/l

Q: What about the Glycaemia [1, 8] of the same compound?
A: 14.66 +/− 0.47 mM/l

Q: And the Insulinaemia [1, 8]?
A: **1.92 +/− 0.8 μU/ml

Q: What about the Lactates [1, 8] of the same compound?
A: **1.33 +/− 0.15 mM/l

Q: And the Triglycerides [1, 8]?
A: 1.04 +/− 0.10 mM/l

Q: What about the Cholesterol [1, 9] of the same compound?
A: 1.04 +/− 0.02 mM/l

Q: And the Glycaemia [1, 9]?
A: 6.49 +/− 0.13 mM/l

Q: And the Insulinaemia [1, 9]?
A: 12.7 +/− 0.6 μU/ml

Q: What about the Lactates [1, 9] of the same compound?
A: 2.33 +/− 0.12 mM/l

Q: What about the Triglycerides [1, 9] of the same compound?
A: 0.88 +/− 0.06 mM/l

Q: And the Cholesterol [1, 10]?
A: 1.49 +/− 0.04 mM/l

Q: What about the Glycaemia [1, 10] of the same compound?
A: 14.66 +/− 0.73 mM/l

Q: What about the Insulinaemia [1, 10] of the same compound?
A: 17.0 +/− 1.0 μU/ml

Q: What about the Lactates [1, 10] of the same compound?
A: 2.67 +/− 0.17 mM/l

Q: What about the Triglycerides [1, 10] of the same compound?
A: 1.01 +/− 0.05 mM/l

Q: And the Cholesterol [1, 11]?
A: 1.52 +/− 0.06 mM/l

Q: And the Glycaemia [1, 11]?
A: **13.70 +/− 0.66 mM/l

Q: And the Insulinaemia [1, 11]?
A: **21.0 +/− 1.4 μU/ml

Q: What about the Lactates [1, 11] of the same compound?
A: **1.38 +/− 0.13 mM/l

Q: And the Triglycerides [1, 11]?
A: 0.93 +/− 0.04 mM/l

Q: What about the Glycaemia ([1]; glibenclamide 2 mg/kg/day orally in two doses, D29 (after eight days of treatment), listed as glibenclamide) of the same compound?
A: 13.70 +/− 0.66 mM/l

Q: What about the Decrease in glycaemia ([1]; glibenclamide alone 2 mg/kg/day, D29 vs D21) of the same compound?
A: 6.51%

Q: And the “Effect on insulinaemia” value [1, 12]?
A: still higher on average

Q: And the “Effect on lactate levels” value [1, 12]?
A: significantly reduced

Q: What about the “Effect on glycaemia” value ([1]; glibenclamide higher dose 2 mg/kg/day, D29 vs D21, paired t test) of the same compound?
A: significantly decreases

Q: And the “Effect on glycaemia” value [1, 13]?
A: does not modify

Q: And the “Effect on insulinaemia” value [1, 13]?
A: significant increase

Q: What about the “Effect on level of circulating lactates” value [1, 13] of the same compound?
A: decrease

Q: What about the Minimum active dose ([1]; orally in two doses, eight days, NIDD STZ rats) of the same compound?
A: 2 mg/kg/day

Q: What about the “Activity of daily dose” value [2] of the same compound?
A: inactive
